Measured values reported in the supplement of paper PMC11368000.

Columns and labels:
Settings in all cases: exposure time: 90 min
[1] = system: 1083 (donor line of iPSC-derived cardiomyocytes); assay: POD (EC05) for increase in beat frequency (positive chronotrope) vs vehicle; higher = less potent (higher point of departure)
Protocol: (§1)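 Human iPSC-derived cardiomyocytes from 16 donors were exposed for 90 min at 37 °C to each PFAS at 0.1, 1, 10 and 100 µM in 0.5% DMSO, 384-well plates. Kinetic Ca2+ flux (FLIPR) and Hoechst nuclei counts were normalised to vehicle wells and fitted with a hierarchical Bayesian Hill model to give donor-specific PODs: EC05 for beat-rate increase or decrease and for decay-to-rise ratio increase (QT proxy), EC95 for peak-frequency loss (asystole), EC10 for total cell number loss. 0.03 µM is the lower bound.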

[2] = system: 1118 (donor line of iPSC-derived cardiomyocytes); assay: as above
Protocol: as §1

[3] = system: 11235 (donor line of iPSC-derived cardiomyocytes); assay: as above
Protocol: as §1

[4] = system: 1309 (donor line of iPSC-derived cardiomyocytes); assay: as above
Protocol: as §1

[5] = system: 1368 (donor line of iPSC-derived cardiomyocytes); assay: as above
Protocol: as §1

[6] = system: 1392 (donor line of iPSC-derived cardiomyocytes); assay: as above
Protocol: as §1

[7] = system: 1434 (donor line of iPSC-derived cardiomyocytes); assay: as above
Protocol: as §1

[8] = system: 1516 (donor line of iPSC-derived cardiomyocytes); assay: as above
Protocol: as §1

[9] = system: 1518 (donor line of iPSC-derived cardiomyocytes); assay: as above
Protocol: as §1

[10] = system: 1531 (donor line of iPSC-derived cardiomyocytes); assay: as above
Protocol: as §1

[11] = system: 1535 (donor line of iPSC-derived cardiomyocytes); assay: as above
Protocol: as §1

[12] = system: 1565 (donor line of iPSC-derived cardiomyocytes); assay: as above
Protocol: as §1

[13] = system: 20032 (donor line of iPSC-derived cardiomyocytes); assay: as above
Protocol: as §1

[14] = system: 20084 (donor line of iPSC-derived cardiomyocytes); assay: as above
Protocol: as §1

[15] = system: 30145 (donor line of iPSC-derived cardiomyocytes); assay: as above
Protocol: as §1

[16] = system: 30171 (donor line of iPSC-derived cardiomyocytes); assay: as above
Protocol: as §1

[17] = system: 1516; assay: POD (EC05) for increase in Ca2+ transient decay-to-rise ratio (QT prolongation) vs vehicle; higher = less potent (higher point of departure)
Procedure, shortened: (§2)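 Ca2+ flux in human iPSC-derived cardiomyocytes from 16 donors was recorded on a FLIPR Tetra for 100 s before and after a 90 min exposure at 37 °C to 0.1, 1, 10 and 100 µM (final, 0.5% DMSO). Donor-specific points of departure came from hierarchical Bayesian Hill fits to vehicle-normalised beat frequency, decay-to-rise ratio or peak frequency. A 5% change served as threshold, except for peak frequency, where it was a 95% loss.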

[18] = system: 1518; assay: as above
Procedure, shortened: as §2

[19] = system: 1531; assay: as above
Procedure, shortened: as §2

[20] = system: 1535; assay: as above
Procedure, shortened: as §2

Row | Structure (SMILES) | POD vs vehicle [1] [µM] | POD vs vehicle [2] [µM] | POD vs vehicle [3] [µM] | POD vs vehicle [4] [µM] | POD vs vehicle [5] [µM] | POD vs vehicle [6] [µM] | POD vs vehicle [7] [µM] | POD vs vehicle [8] [µM] | POD vs vehicle [9] [µM] | POD vs vehicle [10] [µM] | POD vs vehicle [11] [µM] | POD vs vehicle [12] [µM] | POD vs vehicle [13] [µM] | POD vs vehicle [14] [µM] | POD vs vehicle [15] [µM] | POD vs vehicle [16] [µM] | POD vs vehicle [17] [µM] | POD vs vehicle [18] [µM] | POD vs vehicle [19] [µM] | POD vs vehicle [20] [µM]
1 | O=C(O)C=CC(F)(C(F)(F)F)C(F)(F)F [3-(Perfluoroisopropyl)-2-propenoic_acid] | > 100 | > 100 | > 100 | > 100 | > 100 | > 100 | > 100 | > 100 | > 100 | > 100 | > 100 | > 100 | > 100 | > 100 | > 100 | > 100 | > 100 | > 100 | > 100 | > 100
2 | O=C(O)CCC(F)(F)C(F)(F)C(F)(F)C(F)(F)C(F)(F)C(F)(F)C(F)(F)F [3-Perfluoroheptylpropanoic_acid] | > 100 | > 100 | > 100 | > 100 | > 100 | > 100 | > 100 | > 100 | > 100 | > 100 | > 100 | > 100 | > 100 | > 100 | > 100 | > 100 | > 100 | > 100 | 25.4 | > 100
3 | OCCC(F)(F)C(F)(F)C(F)(F)C(F)(F)C(F)(F)C(F)(F)F [6:2 Fluorotelomer alcohol] | > 100 | > 100 | > 100 | > 100 | > 100 | > 100 | 1.73 | > 100 | > 100 | > 100 | 5.24 | > 100 | > 100 | > 100 | > 100 | > 100 | > 100 | > 100 | > 100 | > 100
4 | O=S(=O)(O)CCC(F)(F)C(F)(F)C(F)(F)C(F)(F)C(F)(F)C(F)(F)F [6:2 Fluorotelomer sulfonic acid] | > 100 | > 100 | > 100 | > 100 | > 100 | > 100 | > 100 | > 100 | > 100 | > 100 | > 100 | > 100 | > 100 | > 100 | > 100 | > 100 | > 100 | > 100 | > 100 | > 100
5 | OCCC(F)(F)C(F)(F)C(F)(F)C(F)(F)C(F)(F)C(F)(F)C(F)(F)C(F)(F)F [8:2 Fluorotelomer alcohol] | > 100 | > 100 | > 100 | > 100 | > 100 | > 100 | > 100 | > 100 | > 100 | > 100 | > 100 | > 100 | > 100 | > 100 | > 100 | > 100 | > 100 | > 100 | > 100 | > 100
6 | O=S(=O)(O)CCC(F)(F)C(F)(F)C(F)(F)C(F)(F)C(F)(F)C(F)(F)C(F)(F)C(F)(F)F [8:2 Fluorotelomer sulfonic acid] | 27.8 | > 100 | > 100 | > 100 | 77.4 | > 100 | > 100 | > 100 | > 100 | > 100 | > 100 | > 100 | > 100 | > 100 | > 100 | > 100 | 38 | > 100 | 47.4 | > 100
7 | O=C(O)C(F)(F)C(F)(F)C(F)(F)C(F)(F)C(F)(F)C(F)(F)C(F)(F)C(F)(F)Cl [9-Chloro-perfluorononanoic_acid] | > 100 | > 100 | > 100 | > 100 | > 100 | > 100 | > 100 | > 100 | > 100 | > 100 | > 100 | > 100 | > 100 | > 100 | > 100 | > 100 | > 100 | > 100 | > 100 | > 100
8 | O=P(O)(O)CCC(F)(F)C(F)(F)C(F)(F)C(F)(F)C(F)(F)C(F)(F)C(F)(F)C(F)(F)F [((Perfluorooctyl)ethyl)phosphonic_acid] | > 100 | > 100 | > 100 | > 100 | > 100 | > 100 | > 100 | > 100 | > 100 | > 100 | > 100 | > 100 | > 100 | > 100 | > 100 | > 100 | > 100 | > 100 | > 100 | > 100
9 | OCC(F)(F)C(F)(F)C(F)(F)C(F)(F)C(F)(F)C(F)F [Dodecafluoroheptanol] | > 100 | > 100 | > 100 | > 100 | > 100 | > 100 | > 100 | > 100 | > 100 | > 100 | > 100 | > 100 | > 100 | > 100 | > 100 | > 100 | > 100 | > 100 | > 100 | > 100
10 | COC(=O)C(F)(F)C(F)(F)OC(F)(C(F)(F)F)C(F)(F)OC(F)=C(F)F (stereo not given) [Methyl_perfluoro(3-(1-ethenyloxypropan-2-yloxy)propanoate)] | > 100 | > 100 | > 100 | > 100 | > 100 | > 100 | > 100 | > 100 | > 100 | > 100 | > 100 | > 100 | > 100 | > 100 | > 100 | > 100 | > 100 | > 100 | 24.9 | > 100
11 | NC(=O)C(F)(F)C(F)(F)C(F)(F)C(F)(F)C(N)=O [Octafluoroadipamide] | > 100 | > 100 | > 100 | > 100 | > 100 | > 100 | > 100 | > 100 | > 100 | > 100 | > 100 | > 100 | > 100 | > 100 | > 100 | > 100 | > 100 | > 100 | > 100 | > 100
12 | O=C(O)C(F)(F)C(F)(F)C(F)(F)OC(F)(F)F [Perfluoro(4-methoxybutanoic)_acid] | > 100 | > 100 | > 100 | > 100 | > 100 | > 100 | > 100 | > 100 | > 100 | > 100 | > 100 | > 100 | > 100 | > 100 | > 100 | > 100 | > 100 | > 100 | > 100 | > 100
13 | O=C(O)C(F)(F)C(F)(F)OC(F)(F)F [Perfluoro-3-methoxypropanoic_acid] | > 100 | > 100 | > 100 | > 100 | > 100 | > 100 | > 100 | > 100 | > 100 | > 100 | > 100 | > 100 | > 100 | > 100 | > 100 | > 100 | > 100 | > 100 | > 100 | > 100
14 | O=C(O)C(F)(F)C(F)(F)C(F)(F)F [Perfluorobutanoic_acid] | > 100 | > 100 | > 100 | > 100 | > 100 | > 100 | > 100 | > 100 | > 100 | > 100 | > 100 | > 100 | > 100 | > 100 | > 100 | > 100 | > 100 | > 100 | > 100 | > 100
15 | O=C(O)C(F)(F)C(F)(F)C(F)(F)C(F)(F)C(F)(F)C(F)(F)C(F)(F)C(F)(F)C(F)(F)F [Perfluorodecanoic_acid] | > 100 | > 100 | > 100 | > 100 | > 100 | > 100 | > 100 | > 100 | > 100 | > 100 | > 100 | > 100 | > 100 | > 100 | > 100 | > 100 | > 100 | > 100 | > 100 | > 100
16 | NS(=O)(=O)C(F)(F)C(F)(F)C(F)(F)C(F)(F)C(F)(F)C(F)(F)F [Perfluorohexanesulfonamide] | > 100 | > 100 | > 100 | > 100 | > 100 | > 100 | > 100 | > 100 | > 100 | > 100 | > 100 | > 100 | > 100 | > 100 | > 100 | > 100 | > 100 | > 100 | > 100 | 16.8
17 | O=S(=O)(O)C(F)(F)C(F)(F)C(F)(F)C(F)(F)C(F)(F)C(F)(F)F [Perfluorohexanesulfonic_acid] | > 100 | > 100 | > 100 | > 100 | > 100 | > 100 | > 100 | > 100 | > 100 | > 100 | > 100 | > 100 | > 100 | > 100 | > 100 | > 100 | > 100 | > 100 | > 100 | > 100
18 | O=C(O)C(F)(F)C(F)(F)C(F)(F)C(F)(F)C(F)(F)F [Perfluorohexanoic_acid] | > 100 | > 100 | > 100 | > 100 | > 100 | > 100 | > 100 | > 100 | > 100 | > 100 | > 100 | > 100 | > 100 | > 100 | > 100 | > 100 | > 100 | > 100 | > 100 | > 100
19 | O=S(=O)(O)C(F)(F)C(F)(F)C(F)(F)C(F)(F)C(F)(F)C(F)(F)C(F)(F)C(F)(F)F [Perfluorooctanesulfonic_acid] | > 100 | > 100 | > 100 | > 100 | > 100 | > 100 | > 100 | > 100 | > 100 | > 100 | > 100 | > 100 | > 100 | > 100 | > 100 | > 100 | > 100 | > 100 | > 100 | > 100
